Assays:
[1] = tested on: TGF-β-stimulated SMAD3 phosphorylation in BEAS-2B cells; experiment: Cellular ALK5 potency assay, inhibition of TGF-β stimulated pSMAD3 formation in BEAS-2B cells; type: cell-based; conditions: Homo sapiens, pSMAD3, TGF-β 10 ng/mL, read-out: BEAS2B pIC50 (converted)
Protocol: The potency of compounds of the present disclosure for inhibition of TGF-β-stimulated SMAD3 phosphorylation was measured in BEAS-2B cells, a human lung epithelial cell line. TGF-β signals through activin receptor-like kinase 5 (ALK5) immediately prior to SMAD3 phosphorylation.
BEAS-2B cells were grown using 50% DMEM (Life Technologies) and 50% F-12 (Life Technologies) media, supplemented with 10% Fetal Bovine Serum (ATCC), 25 mM HEPES (Life Technologies), and 1×Pen-Strep (Life Technologies). Cells were cultured in a humidified incubator set at 37° C., 5% CO2, and trypsonized using 0.25% Trypsin with 0.5% polyvinylpyrrolidone (PVP).
For the assay, BEAS-2B cells were seeded at 7,500 cells/well (25 μL/well) in a 384-well plate and cultured overnight. Before dosing, growth media was aspirated and the wells were rinsed with HBSS Buffer (HBSS with Calcium and Magnesium, Life Technologies) supplemented with 25 mM HEPES (Life Technologies) and 1% Bovine Serum Albumin (Roche). Compounds were serially diluted in DMSO, then further diluted with supplemented HBSS Buffer (50 μL/well) to create a compound plate 3× of the final assay concentration, at 0.3% DMSO. The diluted compounds were then added to the cells (8 μL/well) and incubated at 37° C., 5% CO2 for 1 hour. After the compound incubation, TGF-β (R&D Systems) reconstituted in supplemented HBSS Buffer was added to the cells ([…], final concentration 10 ng/mL) and incubated for a further 30 minutes, after which the cells were immediately lysed with AlphaLISA lysis buffer (PerkinElmer). AlphaLISA Acceptor and Detector beads (PerkinElmer) were added 2 hours apart, then incubated overnight to be read the next day. The potency of the compound was determined through analysis of dose-dependent quantified changes in pSMAD3 signal from baseline (non-compound treated TGF-β stimulated cells). Data are expressed as pIC50 (negative decadic logarithm IC50) values.

[2] = target: T1, recombinant human ALK5 (TGF-βR1) protein (Homo sapiens, UniProt P36897); experiment: Biochemical ALK5 (TGF-βR1) assay to measure pKi (LANCE Ultra ULight kinase assay); conditions: apparent pKi, converted from pIC50 by Cheng-Prusoff
T1 construct: purchased Life Technologies PR9075A
T1 sequence (P36897 34-503): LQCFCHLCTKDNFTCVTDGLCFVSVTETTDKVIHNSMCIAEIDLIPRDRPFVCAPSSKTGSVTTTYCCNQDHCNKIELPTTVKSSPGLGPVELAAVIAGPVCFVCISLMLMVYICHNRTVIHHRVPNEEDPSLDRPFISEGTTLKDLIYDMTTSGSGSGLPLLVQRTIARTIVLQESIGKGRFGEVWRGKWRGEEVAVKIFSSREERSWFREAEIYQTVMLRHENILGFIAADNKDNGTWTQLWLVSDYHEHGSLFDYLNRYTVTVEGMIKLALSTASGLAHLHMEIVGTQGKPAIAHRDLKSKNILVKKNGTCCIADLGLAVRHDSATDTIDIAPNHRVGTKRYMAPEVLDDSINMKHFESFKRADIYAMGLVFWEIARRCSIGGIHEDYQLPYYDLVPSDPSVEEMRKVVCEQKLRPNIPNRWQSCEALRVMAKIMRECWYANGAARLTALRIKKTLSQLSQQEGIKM
Protocol: The assays were performed in a 384-well plate (24 columns×16 wells/rows). An Echo®550 Liquid Handler (Labcyte) was used to prepare various intermediate concentrations of compounds of the present disclosure in 100% DMSO. From the intermediate concentrations, a range of concentrations (from […] to 25 μM corresponding to volumes up to 105 nL) were prepared and ejected into a final assay plate to be used to create individual dose response curves for each of the subject compounds. To a separate column within the assay plate, 105 nL of DMSO in each well was used to establish a maximum assay signal. Additionally, 105 nL of 100 μM SD-208, a selective TGF-βR1 inhibitor (Catalog #S7624, Selleck Chemicals), was used in another column of wells to establish a minimal assay signal.
With a multidrop dispenser, 8 μL of enzyme mixture (1.25× final) was added to each well. […] The plate was then sealed with an adhesive seal and allowed to equilibrate for 60 minutes at room temperature.
Next, 2 μL of 125 μM ATP (5×final, 125 μM ATP prepared in assay buffer with 2 mM DTT) was added to the incubated mixtures, covered with a MicroClime® Environmental Lid (Product No. LLS-0310, Labcyte) and immediately transferred to 37° C. The reactions were allowed to proceed at 37° C. for 60 minutes before terminating with the addition of 10 μL of detection antibody (LANCE® (lanthanide chelate excite) Ultra Europium-anti-phospo-DNA Topoisomerase 2-alpha (Thr1342)) in detection mixture (12 mM EDTA, 4 nM detection antibody prepared in detection buffer (50 mM Tris-HCl, 150 mM NaCl, 0.5% BSA (Fraction V), pH 7.0)) at room temperature. The plate was then read on a Perkin Elmer EnVision Plate Reader using europium specific reader settings with excitation and emission wavelengths set to 320 or 340 nm and 665 nm, respectively.
For dose-response analyses, percent inhibition versus compound concentrations were plotted, and pIC50 values were determined from a 4-parameter robust fit model with GraphPad Prism V5 Software (GraphPad Software, Inc., La Jolla, CA). This model obtains pIC50 values by fitting the sigmoidal dose-response (variable slope) equation to the data. Results were expressed as pIC50 (negative logarithm of IC50) and subsequently converted to pKi (negative logarithm of dissociate constant, Ki) using the Cheng-Prusoff equation. The higher the value of pKi (lower value of Ki), the greater the inhibition of ALK5 activity.

COc1cc(Nc2nccc(Nc3ccnc(-c4cccc(C)n4)n3)n2)ccc1NS(C)(=O)=O [Compound 18, N-[2-methoxy-4-[[4-[[2-(6-methyl-2-pyridyl)pyrimidin-4-yl]amino]pyrimidin-2-yl]amino]phenyl] methanesulfonamide]
IC50 [1]: 25.1 to 158 nM
Ki [2]: 0.398 to 3.16 nM

Fc1cc(F)c(-c2nccc(Nc3ccnc(Nc4ccc(N5CCOCC5)cc4)n3)n2)cc1Cl [Compound 19, N4-[2-(5-chloro-2,4-difluoro-phenyl)pyrimidin-4-yl]-N2-(4-morpholinophenyl)pyrimidine-2,4-diamine]
IC50 [1]: 25.1 to 158 nM
Ki [2]: 3.98 to 31.6 nM

COc1ncc(Nc2nccc(Nc3ccnc(-c4cccc(C)n4)n3)n2)cc1NS(C)(=O)=O [Compound 20, N-[2-methoxy-5-[[4-[[2-(6-methyl-2-pyridyl)pyrimidin-4-yl]amino]pyrimidin-2-yl]amino]-3-pyridyl]methanesulfonamide]
IC50 [1]: ≤ 20 nM
Ki [2]: 0.398 to 3.16 nM

Cc1cccc(-c2nccc(Nc3ccnc(Nc4ccc(S(=O)(=O)N5CCNCC5)cc4)n3)n2)n1 [Compound 21, N4-[2-(6-methyl-2-pyridyl)pyrimidin-4-yl]-N2-(4-piperazin-1-ylsulfonylphenyl)pyrimidine-2,4-diamine]
IC50 [1]: 25.1 to 158 nM
Ki [2]: 0.0398 to 0.316 nM

Cc1cccc(-c2nccc(Nc3ccnc(Nc4ccc(CN5CC(C(=O)OC6CCNCC6)C5)cc4)n3)n2)n1 [Compound 22, 4-piperidyl 1-[[4-[[4-[[2-(6-methyl-2-pyridyl)pyrimidin-4-yl]amino]pyrimidin-2-yl]amino]phenyl]methyl] azetidine-3-carboxylate]
IC50 [1]: 25.1 to 158 nM
Ki [2]: 0.0398 to 0.316 nM

Cc1cccc(-c2nccc(Nc3ccnc(Nc4ccc(CN5CCN(Cc6ccccc6)CC5)cc4)n3)n2)n1 [Compound 23, N2-[4-[(4-benzylpiperazin-1-yl)methyl]phenyl]-N4-[2-(6-methyl-2-pyridyl)pyrimidin-4-yl]pyrimidine-2,4-diamine]
IC50 [1]: 25.1 to 158 nM
Ki [2]: 0.0398 to 0.316 nM

Cc1cccc(-c2nccc(Nc3ccnc(Nc4ccc(CN(C)C)cc4)n3)n2)n1 [Compound 24, N2-[4-[(dimethylamino)methyl]phenyl]-N4-[2-(6-methyl-2-pyridyl)pyrimidin-4-yl]pyrimidine-2,4-diamine]
IC50 [1]: 25.1 to 158 nM
Ki [2]: ≤ 0.0316 nM

COC(=O)C1CNCCN1Cc1ccc(Nc2nccc(Nc3ccnc(-c4cccc(C)n4)n3)n2)cc1 (centres unmarked) [Compound 25, methyl 1-[[4-[[4-[[2-(6-methyl-2-pyridyl)pyrimidin-4-yl]amino]pyrimidin-2-yl]amino]phenyl]methyl] piperazine-2-carboxylate]
IC50 [1]: 25.1 to 158 nM
Ki [2]: 0.0398 to 0.316 nM

Cc1cccc(-c2nccc(Nc3ccnc(Nc4ccc(N5CCN(Cc6ccccc6)CC5)cc4)n3)n2)n1 [Compound 27, N2-[4-(4-benzylpiperazin-1-yl)phenyl]-N4-[2-(6-methyl-2-pyridyl)pyrimidin-4-yl]pyrimidine-2,4-diamine]
IC50 [1]: 25.1 to 158 nM
Ki [2]: 0.0398 to 0.316 nM

COC(=O)C1CCN(Cc2ccc(Nc3nccc(Nc4ccnc(-c5cccc(C)n5)n4)n3)cc2)CC1 [Compound 28, methyl 1-[[4-[[4-[[2-(6-methyl-2-pyridyl)pyrimidin-4-yl]amino]pyrimidin-2-yl]amino]phenyl]methyl] piperidine-4-carboxylate]
IC50 [1]: ≤ 20 nM
Ki [2]: 0.0398 to 0.316 nM

Cc1cccc(-c2nccc(Nc3ccnc(Nc4ccc(CN5CCCC(C(=O)OC6CCN(C)C6)C5)cc4)n3)n2)n1 (centres unmarked) [Compound 29, (1-methylpyrrolidin-3-yl) 1-[[4-[[4-[[2-(6-methyl-2-pyridyl)pyrimidin-4-yl]amino]pyrimidin-2-yl]amino]phenyl]methyl] piperidine-3-carboxylate]
IC50 [1]: ≤ 20 nM
Ki [2]: ≤ 0.0316 nM

Cc1cccc(-c2nccc(Nc3ccnc(Nc4ncc(C(=O)N5CCNCC5)s4)n3)n2)n1 [Compound 30, [2-[[4-[[2-(6-methyl-2-pyridyl)pyrimidin-4-yl]amino]pyrimidin-2-yl]amino]thiazol-5-yl]-piperazin-1-yl-methanone]
IC50 [1]: 200 to 1260 nM
Ki [2]: 3.98 to 31.6 nM

Cc1cccc(-c2nccc(Nc3ccnc(Nc4ccc(N5CCNCC5CC(=O)O)cc4)n3)n2)n1 (centres unmarked) [Compound 31, 2-[1-[4-[[4-[[2-(6-methyl-2-pyridyl)pyrimidin-4-yl]amino]pyrimidin-2-yl]amino]phenyl]piperazin-2-yl]acetic acid]
IC50 [1]: 200 to 1260 nM
Ki [2]: 0.0398 to 0.316 nM

Cc1cccc(-c2nccc(Nc3ccnc(Nc4ccc(CN5C[C@@H](C)NC[C@H]5C)cc4)n3)n2)n1 [Compound 32, N2-[4-[[(2R,5R)-2,5-dimethylpiperazin-1-yl]methyl]phenyl]-N4-[2-(6-methyl-2-pyridyl)pyrimidin-4-yl]pyrimidine-2,4-diamine]
IC50 [1]: 25.1 to 158 nM
Ki [2]: 0.0398 to 0.316 nM

Cc1cccc(-c2nccc(Nc3ccnc(Nc4ccc(C(=O)OCC5CNC5)cc4)n3)n2)n1 [Compound 33, azetidin-3-ylmethyl 4-((4-((2-(6-methylpyridin-2-yl)pyrimidin-4-yl)amino)pyrimidin-2-yl)amino)benzoate]
IC50 [1]: 25.1 to 158 nM
Ki [2]: 0.0398 to 0.316 nM

Cc1cccc(-c2nccc(Nc3ccnc(Nc4ccc(N5C[C@H]6CC[C@@H](C5)N6)cc4)n3)n2)n1 [Compound 34, N4-[2-(6-methyl-2-pyridyl)pyrimidin-4-yl]-N2-[4-[rac-(1S,5R)-3,8-diazabicyclo[3.2.1]octan-3-yl]phenyl]pyrimidine-2,4-diamine]
IC50 [1]: 25.1 to 158 nM
Ki [2]: 0.0398 to 0.316 nM

Fc1ccc(-c2nccc(Nc3ccnc(Nc4ccc(N5CCOCC5)cc4)n3)n2)c(F)c1 [Compound 35, N4-[2-(2,4-difluorophenyl)pyrimidin-4-yl]-N2-(4-morpholinophenyl) pyrimidine-2,4-diamine]
IC50 [1]: 25.1 to 158 nM
Ki [2]: 3.98 to 31.6 nM

Cc1cccc(-c2nccc(Nc3ccnc(Nc4ccc(-c5cnn(CCO)c5)cc4)n3)n2)n1 [Compound 36, 2-[4-[4-[[4-[[2-(6-methyl-2-pyridyl)pyrimidin-4-yl]amino]pyrimidin-2-yl]amino]phenyl]pyrazol-1-yl]ethanol]
IC50 [1]: 25.1 to 158 nM
Ki [2]: 0.398 to 3.16 nM

Cc1cccc(-c2nccc(Nc3ccnc(Nc4ccc(N5CCN(C(=O)CSC(CCO)C(=O)O)CC5)cc4)n3)n2)n1 (centres unmarked) [Compound 37, 4-hydroxy-2-[2-[4-[4-[[4-[[2-(6-methyl-2-pyridyl)pyrimidin-4-yl]amino]pyrimidin-2-yl]amino]phenyl]piperazin-1-yl]-2-oxo-ethyl]sulfanyl-butanoic acid]
IC50 [1]: 200 to 1260 nM
Ki [2]: 0.0398 to 0.316 nM

— patent US20230399312A1, “SUBSTITUTED PYRIMIDINES AND METHODS OF USE” (THERAVANCE BIOPHARMA R&D IP, LLC, priority 2020, published 2023)
